In US20040171680A1, “Treating Syndrome X with substituted tetralins and indanes” (priority 2002, published 2004):
Like-named read-outs stand apart in the source and are kept apart here.

Experiments:
PPARδ = target: T1, PPARδ (Homo sapiens, UniProt Q03181); assay: Transfection Assay for PPARδ Receptors (PPAR-Gal4 / Gal4-Luciferase reporter in HEK293 cells); type: cell-based; settings: for PPARδ FI: fold induction, PPARδ standard: FI = 36.1; for EC50: values in square brackets
T1 construct: a Gal4-Luciferase reporter is co-transfected
T1 sequence (Q03181 171-441 limits assumed): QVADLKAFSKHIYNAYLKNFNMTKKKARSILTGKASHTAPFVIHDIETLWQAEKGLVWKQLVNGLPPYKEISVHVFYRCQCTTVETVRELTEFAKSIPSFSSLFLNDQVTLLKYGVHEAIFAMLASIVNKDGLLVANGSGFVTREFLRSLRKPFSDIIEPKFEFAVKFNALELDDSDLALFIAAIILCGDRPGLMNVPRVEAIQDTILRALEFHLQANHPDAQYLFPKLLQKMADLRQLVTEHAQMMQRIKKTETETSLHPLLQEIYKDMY
Procedure: Transfection Assay for PPARδ Receptors
HEK293 cells were grown in DMEM/F-12 Media supplemented with 10% FBS and glutamine (GIBCOBRL). The cells were co-transfected with DNA for PPAR-Gal4 receptor and Gal4-Luciferase Reporter using the DMRIE-C Reagent. On the following day, the DNA-containing medium were replaced with 5% Charcoal treated FBS growth medium. After six hours, cells were seeded in 96 well plate and incubated at 37° C. in CO2 incubator overnight. Cells were challenged by test compounds and incubated for 24 hours at 37° C. in 5% CO2 incubator. Luciferase activity was assayed using the Steady-Glo Luciferase Assay Kit from Promega. DMRIE-C Reagent was purchased from GIBCO Cat. No.10459-014. OPTI-MEM I Reduced Serum Medium was purchased from GIBCO Cat. No. 31985. Steady-Glo Luciferase Assay Kit was obtained from Promega Part# E254B.

PPARγ = target: T2, PPARγ (Homo sapiens, UniProt P37231); assay: aP2 Assay for PPAR gamma Agonists (bDNA aP2 mRNA in preadipocytes); type: cell-based; settings: for PPARγ FI: fold induction, PPARγ standard: FI = 70.3; for EC50: values in square brackets
T2 construct: Following the challenge of the preadipocytes, cells may be lysed with lysis buffer; endogenous in cells; host or cells: preadipocytes
T2 sequence (P37231 1-505): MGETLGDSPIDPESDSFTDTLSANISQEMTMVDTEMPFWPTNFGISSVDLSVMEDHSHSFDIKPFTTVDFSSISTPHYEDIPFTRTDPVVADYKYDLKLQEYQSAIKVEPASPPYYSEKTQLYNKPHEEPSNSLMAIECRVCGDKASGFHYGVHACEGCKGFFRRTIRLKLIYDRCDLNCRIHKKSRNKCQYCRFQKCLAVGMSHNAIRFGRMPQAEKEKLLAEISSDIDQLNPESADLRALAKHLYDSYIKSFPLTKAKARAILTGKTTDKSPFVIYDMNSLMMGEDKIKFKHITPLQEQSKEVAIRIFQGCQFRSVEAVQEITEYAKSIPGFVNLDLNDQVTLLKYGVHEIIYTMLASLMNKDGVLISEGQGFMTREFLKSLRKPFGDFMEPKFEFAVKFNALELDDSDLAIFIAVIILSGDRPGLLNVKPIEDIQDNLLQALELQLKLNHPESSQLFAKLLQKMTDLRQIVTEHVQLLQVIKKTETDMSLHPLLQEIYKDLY
Source text: aP2 Assay for PPAR gamma Agonists
The procedure is described in detail in Burris et al., Molecular Endocrinology, 1999, 13:410, which is hereby incorporated by reference in its entirety, and aP2 assay results of agonist intrinsic activity may be presented as fold increase over vehicle in induction of aP2 mRNA production.
Twenty-four hours after the initial seeding of the 96-well plates by hand (around 20,000/well), the differentiation assay may be initiated. Medium may be removed and replaced with […] of differentiation medium containing vehicle (DMSO) or test compounds. Cells may be returned to incubator for 24 hours culture. At the termination of the challenge, medium may be removed and 100 ul of lysis buffer may be added to initiate the bDNA aP2 mRNA assay. The branched DNA assay may be performed according to the manufacturer's protocol (Bayer Diagnostics; Emeryville, Calif.). Result may be expressed as the fold increase of aP2 mRNA production activated over vehicle controls. EC50's and Emax may be determined by non-linear regression with a sigmoidal fit curve.
Following the challenge of the preadipocytes, cells may be lysed with lysis buffer (Bayer Diagnostics) containing the aP2 oligonucleotides. After a 15 minute incubation at 53° C. or 30 minutes at 37° C. incubator, 70 ul of the lysis buffer from each well may be added to a corresponding capture well (preincubated with 70 ul of blocking buffer (Bayer Diagnostics)). The capture plate may be incubated overnight at 53° C. in a plate incubator (Bayer Diagnostics). After this incubation, the bDNA and labeled probes may be annealed as directed by the manufacturer. Following a 30-minute incubation with the luminescent alkaline phosphatase substrate, dioxitane, the luminescence may be quantitated in a Dynex MLX microtiter plate luminometer. Oligonucleotide probes designed to anneal to the aP2 mRNA and function in the bDNA mRNA detection system are designed with ProbeDesigner software (Bayer Diagnostics). This software package analyzes a target sequence of interest with a series of algorithms in order to determine which regions of the sequence can perform as locations for capture, label, or spacer probe annealing. The sequences of the oligonucleotides are as follows: […]

db/db mice = assay: Oral dosing in female db/db mice; type: in vivo; settings: Mus musculus, 1.0 mpk, % change compared to vehicle
Procedure: The compound was prepared as suspensions in 0.5% hydroxypropylmethylcellulose (Dow Chemical, Midland, Mich.). The dosing volume was 10 mL/kg of body weight. […] Body weight was measured in the mornings on Day 1, prior to dosing, and on Day 12 before bleeding. 18-24 hours after the final dose for each group, the mice were anesthetized with CO2/O2 (70:30) and bled by retro-orbital sinus puncture into micro-tubes containing clog activator and then put in ice. The serum samples were prepared by centrifugation. Serum glucose and triglycerides were determined by using COBAS Mira Plus blood chemistry analyzer (Roche Diagnostics, N.J.). Serum insulin was measured by using ALPCO insulin ELISA kit.
Statistical analysis was performed using the program Prism (Graphpad, Monrovia, Calif.) and performing one-way ANOVA with a Dunnet's multiple comparison test.

PPARα = target: T3, PPARα (Rattus norvegicus, UniProt P37230); assay: HD bDNA Assay (HD gene induction); type: cell-based; settings: in section F; target not named there, values match the PPARα column; read-out: EC50
T3 construct: H4IIE rat hepatoma cell line was obtained from ATCC; host or cells: H4IIE rat hepatoma cells
T3 sequence (P37230 1-468): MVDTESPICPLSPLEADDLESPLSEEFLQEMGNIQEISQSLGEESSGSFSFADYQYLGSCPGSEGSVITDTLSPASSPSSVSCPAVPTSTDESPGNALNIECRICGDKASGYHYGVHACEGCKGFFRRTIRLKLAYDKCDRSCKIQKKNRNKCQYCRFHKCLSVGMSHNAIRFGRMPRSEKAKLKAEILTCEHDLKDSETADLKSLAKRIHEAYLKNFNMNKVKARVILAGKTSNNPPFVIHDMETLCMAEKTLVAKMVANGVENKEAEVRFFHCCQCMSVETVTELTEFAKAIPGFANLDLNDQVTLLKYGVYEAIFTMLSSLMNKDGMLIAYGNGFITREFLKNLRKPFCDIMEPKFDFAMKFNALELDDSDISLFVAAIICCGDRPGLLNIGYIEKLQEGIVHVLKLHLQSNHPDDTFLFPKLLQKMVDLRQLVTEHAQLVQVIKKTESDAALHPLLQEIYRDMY
Procedure: HD bDNA Assay H4IIE rat hepatoma cell line was obtained from ATCC. Cells were cultured in 175 cm^2 tissue culture flask or seeded in 96-well plate with (high serum content, 10% fetal bovine serum and 10% calf serum) culture medium and maintained at 37° C. and 5% CO2 throughout study. Twenty-four hours after the initial seeding of the 96-well plate by hand (approximate 100,000/well), the HD gene induction assay was initiated. Media was removed and replaced with 100 ul of low serum culture media (5% charcoal/dextran treated calf serum) containing vehicle (DMSO) or test compounds or standard. Cells returned to incubator for 24 hours culture. At the termination of the challenge, 50 ul lysis buffer with HD gene specific CE, LE, BL probes was added directly into each well to initiate the bDNA HD mRNA assay. The branched DNA assay was performed according to the manufacturer's protocol (Bayer Diagnostics; Emeryville. Calif.). At the end of the assay, the luminescence was quantitated in Dynex MLX microtiter plate luminometer. EC50's were determined by non-linear regression with a sigmoidal fit utilizing Graphpad Prism.

[1] = 120 h, 5 day oral dosing, read-out: Δ BW

Compound	PPARγ FI (PPARγ)	EC50 (PPARα)	further results
CCN(C(=O)Nc1ccc(SC(F)(F)F)cc1)C1Cc2ccc(SC(C)(C)C(=O)O)cc2C1 (centres unmarked) [Example 4, 2-{2-[1-Ethyl-3-(4-trifluoromethylsulfanylphenyl)ureido]indan-5-ylsulfanyl}-2-methylpropionic acid]	3.7	0.037 µM	change in vivo at 1 mg/kg (db/db mice; [1]): -11%; change in vivo at 1 mg/kg (db/db mice; 120 h, 5 day oral dosing, read-out: Δ Plasma Glucose): -49%; change in vivo at 1 mg/kg (db/db mice; 120 h, 5 day oral dosing, read-out: Δ Plasma Insulin): -13%; change in vivo at 1 mg/kg (db/db mice; 120 h, 5 day oral dosing, read-out: Δ Plasma TG): -47%
CCCCCCN(C(=O)Nc1ccc(OC(F)(F)F)cc1)C1Cc2ccc(SC(C)(C)C(=O)O)cc2C1 (centres unmarked) [Example 14, 2-Methyl-2-{2-[1-hexyl-3-(4-trifluoromethoxyphenyl)ureido]indan-5-ylsulfanyl}propionic acid]	0.3	0.213 µM	PPARδ FI (PPARδ): 1.3
CCCN(C(=O)Nc1ccc(OC(F)(F)F)cc1)C1Cc2ccc(SC(C)(C)C(=O)O)cc2C1 (centres unmarked) [Example 16, 2-Methyl-2-{2-[1-propyl-3-(4-trifluoromethoxyphenyl)ureido]indan-5-ylsulfanyl}propionic acid]	0.37	0.158 µM	–
CC(C)(Sc1ccc2c(c1)CC(NC(=O)Nc1ccc(OC(F)(F)F)cc1)C2)C(=O)O (centres unmarked) [Example 18, 2-Methyl-2-{2-[3-(4-trifluoromethoxyphenyl)ureido]indan-5-ylsulfanyl}propionic acid]	0.31	0.135 µM	–
CCN(C(=O)Oc1ccc(C)cc1)C1CCc2cc(SC(C)(C)C(=O)O)c(Cl)cc2C1 (centres unmarked) [Example 58, 2-{3-Chloro-6-[(4-methyl-phenoxycarbonyl)-ethyl-amino]-5,6,7,8-tetrahydronaphthalen-2-ylsulfanyl}-2-methyl-propionic acid]	–	0.34 µM	EC50 (PPARδ): 0.613 µM; EC50 (PPARγ): > 3 µM
CCN(C(=O)Oc1ccc(Cl)cc1)C1CCc2cc(SC(C)(C)C(=O)O)c(Cl)cc2C1 (centres unmarked) [Example 59, 2-{3-Chloro-6-[(4-chloro-phenoxycarbonyl)-ethyl-amino]-5,6,7,8-tetrahydronaphthalen-2-ylsulfanyl}-2-methyl-propionic acid]	–	0.39 µM	EC50 (PPARδ): 0.655 µM; EC50 (PPARγ): 1.11 µM
CCN(C(=O)Oc1ccc(OC(F)(F)F)cc1)C1CCc2cc(SC(C)(C)C(=O)O)ccc2C1 (centres unmarked) [Example 60, 2-{6-[Ethyl-(4-trifluoromethoxy-phenoxycarbonyl)-amino]-5,6,7,8-tetrahydronaphthalen-2-ylsulfanyl}-2-methyl-propionic acid]	–	0.002 µM	EC50 (PPARδ): > 3 µM; EC50 (PPARγ): > 3 µM

More lines, in order of falling EC50 (PPARα), values ahead:

PPARγ FI (PPARγ)	EC50 (PPARα)	Compound	further results
0.43	0.16 µM	CCCCN(C(=O)Nc1ccc(SC(F)(F)F)cc1)C1Cc2ccc(SC(C)(C)C(=O)O)cc2C1 (centres unmarked) [Example 17, 2-Methyl-2-{2-[1-butyl-3-(4-trifluoromethylsulfanylphenyl)ureido]indan-5-ylsulfanyl}propionic acid]	–
0.44	0.106 µM	CC(C)CCN(C(=O)Nc1ccc(OC(F)(F)F)cc1)C1Cc2ccc(SC(C)(C)C(=O)O)cc2C1 (centres unmarked) [Example 20, 2-Methyl-2-{2-[1-(3-methylbutyl)-3-(4-trifluoromethoxyphenyl)ureido]indan-5-ylsulfanyl}-2-methylpropionic acid]	–
0.05	0.106 µM	CC(C)CCN(C(=O)Nc1ccc(C(C)C)cc1)C1Cc2ccc(SC(C)(C)C(=O)O)cc2C1 (centres unmarked) [Example 21, 2-{2-[3-(4-Isopropylphenyl)-1-(3-methylbutyl)ureido]indan-5-ylsulfanyl}-2-methylpropionic acid]	–
0.24	0.027 µM	CCN(C(=O)Nc1ccc(OC(F)(F)F)cc1)C1Cc2ccc(SC(C)(C)C(=O)O)cc2C1 (centres unmarked) [Example 2, 2-{2-[1-Ethyl-3-(4-trifluoromethoxyphenyl)ureido]indan-5-ylsulfanyl}-2-methylpropionic acid]	PPARδ FI (PPARδ): 4.2; change in vivo at 1 mg/kg (db/db mice; [1]): -59%; change in vivo at 1 mg/kg (db/db mice; 264 h, 11 day oral dosing, read-out: Δ Plasma Glucose): -60%; change in vivo at 1 mg/kg (db/db mice; 264 h, 11 day oral dosing, read-out: Δ Plasma Insulin): -53%; change in vivo at 1 mg/kg (db/db mice; 264 h, 11 day oral dosing, read-out: Δ Plasma TG): -56%
